The text below walks through data of US20220249528A1 (CELGENE CORPORATION, priority 2019, published 2022).

One assay concerns 22 AML cell lines. Put plainly: Cell viability and 5-azacytidine-venetoclax synergy in AML cell line panel. Type of assay: cell-based. Particulars: venetoclax-resistant lines Kasumi-1, Kasumi-2 and NOMO-1.
Another assay relates to MV4-11 xenograft model. Nature of the assay: Disseminated AML xenograft survival study. Type of assay: in vivo, mice. Particulars: 5-azacytidine LEED regimen 1 mg/kg qd×5×3, alone or with venetoclax or midostaurin 100 mg/kg qd×21; vehicle 29.5. The method, then:
LEED models oral administration of AZA, while HELD models intravenous or subcutaneous administration of AZA.
The animals were fed ad libitum water (reverse osmosis, 1 ppm Cl), and NIH 31 Modified and Irradiated Lab Diet® consisting of 18.0% crude protein, 5.0% crude fat, and 5.0% crude fiber. […] (68-72° F.) and 40-60% humidity.
On each day of dosing, an appropriate amount of gilteritinib was dissolved in 0.5% methylcellulose in DI water to yield a dosing solution at 0.4 mg/mL. Each week, an appropriate amount of venetoclax was dissolved in 10% ethanol:30% PEG400:60% phosal 50 propylene glycol to yield a dosing solution at 10 mg/mL. […]
Animals were monitored individually for an endpoint of moribundity due to progression of the leukemia. […] The time to endpoint (TTE), in days, was recorded for each mouse that died of its disease or was euthanized due to extensive tumor progression. […] The median TTE value was calculated for each group. The median TTE of treated mice was expressed as a percentage of the median TTE of the control mice (% T/C), and the increase in life span (ILS) was calculated as: ILS=% T/C−100%, where T=median TTE treated, and C=median TTE control. […]
Animals were weighed daily on Days 1-5, then twice per week until the completion of the study. […] Group mean body weight loss also was monitored as per protocol. […] Survival was analyzed by the Kaplan-Meier method, based on TTE values.

For the next assay, the system named is MV4-11 cells. Put plainly: RNASeq analysis, differential expression and KEGG pathways. It is filed as cell-based. From the text:
After treatment, cells were recovered, washed once in PBS, and flash frozen as cell pellets. Cell pellets were sent to Canopy Biosciences for RNA extraction and library preparation and sequencing. RNA was extracted using the Qiagen RNeasy Mini Kit according to manufacturer's instructions. A modified protocol was used to preserve miRNA species. […] MCL1 RNA levels in other cell lines were quantified by RNASeq using standard methods.
Libraries were multiplexed and sequenced using Illumina HiSeq. All gene counts were then imported into the R/Bioconductor package EdgeR and TMM normalization size factors were calculated to adjust for samples for differences in library size. Ribosomal genes and genes not expressed in the smallest group size minus one samples greater than one count-per-million were excluded from further analysis. Differential expression analysis was then performed to analyze for differences between conditions and the results were filtered for only those genes with Benjamini-Hochberg false-discovery rate adjusted p-values less than or equal to 0.05. Global perturbations in known Gene Ontology (GO) terms and KEGG pathways were detected using the R/Bioconductor package GAGE to test for changes in expression of the reported log 2 fold-changes reported by Limma in each term versus the background log 2 fold-changes of all genes found outside the respective term. The R/Bioconductor package heatmap and Pathview was used to display heatmaps or annotated KEGG graphs across groups of samples for each GO term or KEGG pathway (respectively) with a Benjamini-Hochberg false-discovery rate adjusted p-value less than or equal to 0.05. To find differentially expressed genes, the raw counts were variance stabilized with the R/Bioconductor package DESeq2.

For the next assay, the system named is MCL-1 in OCI-AML2 cells. Nature of the assay: Western blot of MCL-1 degradation. It is filed as cell-based. To be noted: OCI-AML2, FIG. 12D. The procedure: (§1) Lysates were quantified using a bicinchoninic acid (BCA) kit (Piece/Thermo Fisher, Waltham, Mass.). 20 to 30 μg protein was resolved on a 4-12% SDS-PAGE gel, transferred to PVDF membranes (80V/90 minute by wet-transfer), and blocked with Oddysey TBS blocking buffer for 1 hour and then probed with appropriate primary antibodies overnight at 4° C. using dilution as recommended by manufacturer. Membranes were washed three times for a total of 30 minutes and then incubated with secondary antibodies at room temperature in the dark for 1 hour. After another three washes, Odyssey infrared imaging system and companion software (LI-COR biosciences, Lincoln, Nebr., USA) were used to scan immunoblot membranes and to quantify band intensity according to the manufacturer's instructions. The ratio of proteins of interest to loading control in treated samples was normalized to the corresponding ratio in untreated cells.

The test system of a further assay is MCL-1 in KG1a cells. Put plainly: Western blot of MCL-1 degradation. To be noted: FIG. 12A. Type of assay: cell-based. The method, then: as §1
The subject of a further assay is MCL-1 in THP-1 cells. Put plainly: Western blot of MCL-1 degradation. Type of assay: cell-based. To be noted: THP-1, by 24 hours. The procedure: as §1
Assay [1] concerns ATF3 and SCD mRNA in MV4-11 cells. Put plainly: Real-time PCR validation of ATF3 and SCD expression. It is filed as cell-based. To be noted: for ATF3 expression: FIG. 14C; for SCD expression: 24 hours, FIG. 14D. The method, then: At this time, cells were recovered and RNA was extracted using Qiagen RNeasy kit according to manufacturer's instructions. Reverse transcription was performed using SuperScript VILO cDNA synthesis kit. Validated Taqman probes and Taqman Fast Advanced Master Mix was used with Viia 7 Real-Time PCR System (Invitrogen/ThermoFisher Scientific, Waltham, Mass.) to quantify transcripts of ATF3, SCD, and 18S mRNA.

A further assay has as its system MCL-1 in MV4-11 cells. Nature of the assay: Western blot of MCL-1 degradation. Type of assay: cell-based. Particulars: 20 μM Z-VAD-FMK 1 hour before 5-azacytidine for 16 hours, FIG. 13B. The procedure:
as §1, with “cells. Antibodies used for immunoblotting were purchased from the following sources: BCL-2 (sc-7382), MCL1-(sc-819) from Santa Cruz Biotechnology (Dallas, Tex., USA, Bim (2819), caspase-3 (9664) from Cell Signaling Technology; beta-Actin (A2228) from Sigma-Aldrich; DNMTI (ab188453) from AbCam; IRDye 680 goat anti-rabbit and IRDye 800 goat anti-mouse secondary antibodies (#925-68073 and #925-32212) were purchased from Li-COR Biosciences (Lincoln, Nebr.). […]” for “cells.”

[2] abbreviates: 1 μM 5-azacytidine vs PBS, 24 h.

Molecules are shown by their SMILES. Peptide text beside a SMILES is read from it. * marks the point of attachment. Cbz = O=C(OCc1ccccc1)*; CH2F = FC*

As to `Nc1ncn([C@@H]2O[C@H](CO)[C@@H](O)[C@H]2O)c(=O)n1` [5-azacytidine, 4-amino−1-B-D-ribofuranosyl-1,3,5-triazin-2(1H)-one], the “effect of co-treatment on venetoclax resistance” value with 22 AML cell lines is on record as “reversal of venetoclax resistance”. Besides, the median survival in the assay with MV4-11 xenograft model was 35. For the same molecule, in the assay on MV4-11 cells (setting [2]), the “Mean logFC, KEGG pathway Metabolic pathways” value was −5.29. Besides, in the assay on MV4-11 cells (setting [2]), the “Mean logFC, KEGG pathway Taste transduction” value is recorded as 2.44. Moreover, the ATF3 expression increase result in the assay on MV4-11 cells (RNAseq, 48 hours after 5-azacytidine treatment) is “two-fold”. Besides, the MCL-1 degradation result in the assay on MCL-1 in OCI-AML2 cells is “did not lead to any degradation of MCL-1”. The “start of MCL-1 degradation after treatment” value in the assay on MCL-1 in KG1a cells turned out to be 6 h. In addition, the “extent of MCL-1 degradation” value in the assay with MCL-1 in THP-1 cells is listed as “incomplete degradation by 24 hours”. For the same molecule, the ATF3 expression entry was “not sufficient to induce ATF3 expression” in assay [1] (0.3 μM, 24 or 48 hours); “increased in a time- and concentration-dependent manner” in assay [1] (0.3, 1 or 3 μM, 24 and 48 hours). The SCD expression entry in assay [1] (3 μM) is listed as “decreased rapidly within 24 hours”; in assay [1] (low concentrations), “not affected”.

As for `COC(=O)C[C@H](NC(=O)[C@H](C)NC(=O)[C@@H](NC(=O)OCc1ccccc1)C(C)C)C(=O)CF` [Z-VAD-FMK] (Cbz-Val-Ala-Asp(OMe)-CH2F), the “effect on MCL-1 degradation by 5-azacytidine” value in the assay with MCL-1 in MV4-11 cells was “partially ablated”.
